From patent publication US20250101041A1, “POSITIVE ALLOSTERIC MODULATORS OF THE MUSCARINIC ACETYLCHOLINE RECEPTOR M4” (Vanderbilt University, priority 2022, published 2025) come the findings set out here.

One may read the Emax as the greatest response seen or fitted, relative to the assay's reference. As a reminder, the EC50 is the concentration at which the effect is half-maximal.

This test concerns the target T1, human mAChR M4 (Homo sapiens, UniProt P08173).
T1 construct: expressed in transfected cells; host or cells: CHO-K1 (American Type Culture Collection), stably expressing hM4 and Gqi5
T1 sequence (P08173 1-479): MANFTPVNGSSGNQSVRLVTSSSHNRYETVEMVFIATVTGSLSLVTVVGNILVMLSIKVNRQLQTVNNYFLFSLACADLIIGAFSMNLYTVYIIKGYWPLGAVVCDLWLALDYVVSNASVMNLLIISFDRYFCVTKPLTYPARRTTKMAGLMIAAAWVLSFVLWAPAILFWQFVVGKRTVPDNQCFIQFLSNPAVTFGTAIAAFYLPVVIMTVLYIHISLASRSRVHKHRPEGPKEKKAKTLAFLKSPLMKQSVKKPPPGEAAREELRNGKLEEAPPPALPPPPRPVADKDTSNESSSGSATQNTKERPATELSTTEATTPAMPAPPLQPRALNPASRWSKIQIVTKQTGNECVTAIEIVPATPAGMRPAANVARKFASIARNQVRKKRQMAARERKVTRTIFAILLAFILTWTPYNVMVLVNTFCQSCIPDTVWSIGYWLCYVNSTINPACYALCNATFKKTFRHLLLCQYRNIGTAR
Kind of test: mAChR M4 cell-based functional assay: calcium mobilization (Fluo-4, FDSS), potentiation of EC20 acetylcholine response in hM4-Gqi5 CHO-K1 cells. The settings on record: human M4; for Emax at 30 µM: CHO-K1, % ACh maximum at 30 μM; for EC50: potentiation of EC20 acetylcholine response, calcium mobilization. A digest of the protocol: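 CHO-K1 cells stably co-expressing human M4 and chimeric Gqi5, loaded with Fluo-4 AM (50 min, 37 °C). Compounds in 11-point 1:3 series added first; EC20 acetylcholine added at 144 s and again at 230 s. Calcium read on FDSS at 1 Hz; EC50 and Emax from four-parameter logistic fit of potentiated EC20 response.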
On the technique in general: Calcium assays in cells follow changes in intracellular calcium, usually with a dye or a luminescent sensor.

As to `Cc1cc2nccc(=O)n2nc1N1CCc2ncc(Nc3cncc(Cl)c3)cc2C1` [Compound 2-142, 7-(3-((5-chloropyridin-3-yl)amino)-7,8-dihydro-1,6-naphthyridin-6(5H)-yl)-8-methyl-4H-pyrimido[1,2-b]pyridazin-4-one], the Emax at 30 µM was 66% and the concentration for a half-maximal effect (EC50) came out at 0.182 µM. For `Cc1cc2nccc(=O)n2nc1N1CCc2ncc(Nc3ccc(F)nc3C)cc2C1` [Compound 2-143, 7-(3-((6-fluoro-2-methylpyridin-3-yl)amino)-7,8-dihydro-1,6-naphthyridin-6(5H)-yl)-8-methyl-4H-pyrimido[1,2-b]pyridazin-4-one] the same measures were 82% and 0.469 µM. For `Cc1c(N2CCc3ncc(N4CCOC4=O)cc3C2)nn2c(=O)ccnc2c1C` [Compound 2-144, 3-(6-(8,9-dimethyl-4-oxo-4H-pyrimido[1,2-b]pyridazin-7-yl)-5,6,7,8-tetrahydro-1,6-naphthyridin-3-yl)oxazolidin-2-one] the same measures were 98% and 1.58 µM. As for `Cc1c(N2CCc3ncc(N4CC(C)(C)CC4=O)cc3C2)nn2c(=O)ccnc2c1C` [Compound 2-145, 7-(3-(4,4-dimethyl-2-oxopyrrolidin-1-yl)-7,8-dihydro-1,6-naphthyridin-6(5H)-yl)-8,9-dimethyl-4H-pyrimido[1,2-b]pyridazin-4-one], the Emax at 30 µM turned out to be 68% and the half-maximal effective concentration (EC50) worked out at 1.75 µM. Regarding `Cc1c(N2CCc3ncc(N4CCCS4(=O)=O)cc3C2)nn2c(=O)ccnc2c1C` [Compound 2-146, 7-(3-(1,1-dioxidoisothiazolidin-2-yl)-7,8-dihydro-1,6-naphthyridin-6(5H)-yl)-8,9-dimethyl-4H-pyrimido[1,2-b]pyridazin-4-one], the Emax at 30 µM is 78% and the EC50 came out at 1.48 µM. For `Cc1c(N2CCc3ncc(N=S4(=O)CCCC4)cc3C2)nn2c(=O)ccnc2c1C` [Compound 2-147, 8,9-dimethyl-7-(3-((1-oxidotetrahydro-126-thiophen-1-ylidene)amino)-7,8-dihydro-1,6-naphthyridin-6(5H)-yl)-4H-pyrimido[1,2-b]pyridazin-4-one] the same measures were 100% and 1.24 µM. With `Cc1c(N2CCc3ncc(N4CCC(C)(C)C4=O)cc3C2)nn2c(=O)ccnc2c1C` [Compound 2-148, 7-(3-(3,3-dimethyl-2-oxopyrrolidin-1-yl)-7,8-dihydro-1,6-naphthyridin-6(5H)-yl)-8,9-dimethyl-4H-pyrimido[1,2-b]pyridazin-4-one], the Emax at 30 µM turned out to be 86% and the EC50 came out at 1.03 µM. The corresponding values for `Cc1c(N2CCc3ncc(N4C(=O)Cc5ncccc54)cc3C2)nn2c(=O)ccnc2c1C` [Compound 2-149, 8,9-dimethyl-7-(3-(2-oxo-2,3-dihydro-1H-pyrrolo[3,2-b]pyridin-1-yl)-7,8-dihydro-1,6-naphthyridin-6(5H)-yl)-4H-pyrimido[1,2-b]pyridazin-4-one] are 50% and 1.05 µM. As for `Cc1c(N2CCc3ncc(N4CC(C)(C)OC4=O)cc3C2)nn2c(=O)ccnc2c1C` [Compound 2-150, 3-(6-(8,9-dimethyl-4-oxo-4H-pyrimido[1,2-b]pyridazin-7-yl)-5,6,7,8-tetrahydro-1,6-naphthyridin-3-yl)-5,5-dimethyloxazolidin-2-one], the Emax at 30 µM stood at 63% and the EC50 stood at 4.38 µM. Regarding `Cc1cc2nccc(=O)n2nc1N1CCc2ncc(N3CC4(COC4)C3)cc2C1` [Compound 2-151, 7-(3-(2-oxa-6-azaspiro[3.3]heptan-6-yl)-7,8-dihydro-1,6-naphthyridin-6(5H)-yl)-8-methyl-4H-pyrimido[1,2-b]pyridazin-4-one], the maximal response (Emax) at 30 µM came to 56%. With `Cc1cc2nccc(=O)n2nc1N1CCc2ncc(Nc3cc(C(F)(F)F)ncc3F)cc2C1` [Compound 2-152, 7-(3-((5-fluoro-2-(trifluoromethyl)pyridin-4-yl)amino)-7,8-dihydro-1,6-naphthyridin-6(5H)-yl)-8-methyl-4H-pyrimido[1,2-b]pyridazin-4-one], the Emax at 30 µM was 88% and the EC50 was determined as 1.32 µM. In the case of `Cc1cc2nccc(=O)n2nc1N1CCc2ncc(Nc3ccnc(C)c3F)cc2C1` [Compound 2-153, 7-(3-((3-fluoro-2-methylpyridin-4-yl)amino)-7,8-dihydro-1,6-naphthyridin-6(5H)-yl)-8-methyl-4H-pyrimido[1,2-b]pyridazin-4-one], the Emax at 30 µM amounted to 83% and the EC50 was determined as 0.027 µM. For `Cc1cc2nccc(=O)n2nc1N1CCc2ncc(Nc3c(F)cncc3F)cc2C1` [Compound 2-154, 7-(3-((3,5-difluoropyridin-4-yl)amino)-7,8-dihydro-1,6-naphthyridin-6(5H)-yl)-8-methyl-4H-pyrimido[1,2-b]pyridazin-4-one] the same measures were 90% and 0.041 µM. `Cc1cc(Nc2cnc3c(c2)CN(c2nn4c(=O)ccnc4cc2C)CC3)c(F)cn1` [Compound 2-155, 7-(3-((5-fluoro-2-methylpyridin-4-yl)amino)-7,8-dihydro-1,6-naphthyridin-6(5H)-yl)-8-methyl-4H-pyrimido[1,2-b]pyridazin-4-one]: the Emax at 30 µM turned out to be 94% and the 50% effective concentration (EC50) came to 0.021 µM. The corresponding values for `Cc1cc2nc(C)c(F)c(=O)n2nc1N1CCc2ncc(Nc3ccncc3F)cc2C1` [Compound 2-156, 3-fluoro-7-(3-((3-fluoropyridin-4-yl)amino)-7,8-dihydro-1,6-naphthyridin-6(5H)-yl)-2,8-dimethyl-4H-pyrimido[1,2-b]pyridazin-4-one] are 97% and 0.064 µM. The corresponding values for `Cc1cc2ncc(Cl)c(=O)n2nc1N1CCc2ncc(Nc3ccncc3F)cc2C1` [Compound 2-157, 3-chloro-7-(3-((3-fluoropyridin-4-yl)amino)-7,8-dihydro-1,6-naphthyridin-6(5H)-yl)-8-methyl-4H-pyrimido[1,2-b]pyridazin-4-one] are 90% and 0.003 µM. For `Cc1cc2nc(C)c(C)c(=O)n2nc1N1CCc2ncc(Nc3ccncc3F)cc2C1` [Compound 2-158, 7-(3-((3-fluoropyridin-4-yl)amino)-7,8-dihydro-1,6-naphthyridin-6(5H)-yl)-2,3,8-trimethyl-4H-pyrimido[1,2-b]pyridazin-4-one] the same measures were 91% and 0.001 µM.

On to `Cc1cc2nc(C(F)F)cc(=O)n2nc1N1CCc2ncc(Nc3ccncc3F)cc2C1` [Compound 2-159, 2-(difluoromethyl)-7-(3-((3-fluoropyridin-4-yl)amino)-7,8-dihydro-1,6-naphthyridin-6(5H)-yl)-8-methyl-4H-pyrimido[1,2-b]pyridazin-4-one], for which the Emax at 30 µM was 94% and the concentration for a half-maximal effect (EC50) was determined as 0.001 µM. For `Cc1cc2nc(C(F)(F)F)cc(=O)n2nc1N1CCc2ncc(Nc3ccncc3F)cc2C1` [Compound 2-160, 7-(3-((3-fluoropyridin-4-yl)amino)-7,8-dihydro-1,6-naphthyridin-6(5H)-yl)-8-methyl-2-(trifluoromethyl)-4H-pyrimido[1,2-b]pyridazin-4-one] the same measures were 92% and 0.008 µM. For `Cc1cc2nc(C)c(Cl)c(=O)n2nc1N1CCc2ncc(Nc3ccncc3F)cc2C1` [Compound 2-161, 3-chloro-7-(3-((3-fluoropyridin-4-yl)amino)-7,8-dihydro-1,6-naphthyridin-6(5H)-yl)-2,8-dimethyl-4H-pyrimido[1,2-b]pyridazin-4-one] the same measures were 95% and 0.001 µM.

Regarding `[2H]C1([2H])Cc2ncc(Nc3cc(C)ncc3F)cc2C([2H])([2H])N1c1nn2c(=O)ccnc2cc1C` [Compound 2-162, 7-(3-((5-fluoro-2-methylpyridin-4-yl)amino)-7,8-dihydro-1,6-naphthyridin-6(5H)-yl-5,5,7,7-d4)-8-methyl-4H-pyrimido[1,2-b]pyridazin-4-one], the Emax at 30 µM turned out to be 96% and the concentration for a half-maximal effect (EC50) amounted to 0.016 µM.

Turning to `[2H]C1([2H])Cc2ncc(Nc3cccnc3C)cc2C([2H])([2H])N1c1nn2c(=O)ccnc2cc1C` [Compound 2-163, 8-methyl-7-(3-((2-methylpyridin-3-yl)amino)-7,8-dihydro-1,6-naphthyridin-6(5H)-yl-5,5,7,7-d4)-4H-pyrimido[1,2-b]pyridazin-4-one], the Emax at 30 µM was 79% and the 50% effective concentration (EC50) turned out to be 0.388 µM. As to `[2H]C1([2H])Cc2ncc(Nc3ccncc3F)cc2C([2H])([2H])N1c1nn2c(=O)ccnc2cc1C` [Compound 2-164, 7-(3-((3-fluoropyridin-4-yl)amino)-7,8-dihydro-1,6-naphthyridin-6(5H)-yl-5,5,7,7-d4)-8-methyl-4H-pyrimido[1,2-b]pyridazin-4-one], the Emax at 30 µM stood at 94% and the EC50 turned out to be 0.007 µM. For `[2H]C1([2H])Cc2ncc(Nc3ccncc3C)cc2C([2H])([2H])N1c1nn2c(=O)ccnc2cc1C` [Compound 2-165, 8-methyl-7-(3-((3-methylpyridin-4-yl)amino)-7,8-dihydro-1,6-naphthyridin-6(5H)-yl-5,5,7,7-d4)-4H-pyrimido[1,2-b]pyridazin-4-one] the same measures were 66% and 0.127 µM.
